Assay results taken from ChEMBL document CHEMBL1201862, “PubChem BioAssay data set” (2004).
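All cell lines were grown in 96-well plates and treated with compound for 48 hours. Abbreviation: GI50, concentration required for 50% inhibition of growth.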 Calls of active or inactive are those of the source. No stated cut-off is given here; in the data, active = GI50 up to about 1.1 µM and inactive = higher.

What was measured:
Experiment in all cases: growth of human tumour cells (NCI), 48 h
[1] = test system: SK-MEL-5
[2] = test system: UACC-62
[3] = test system: UACC-257
[4] = test system: PC-3
[5] = test system: SF-539
[6] = test system: HL-60
[7] = test system: NCI-H522
[8] = test system: OVCAR-4
[9] = test system: Hs-578T
[10] = test system: MCF7
[11] = test system: HT-29
[12] = test system: UO-31
[13] = test system: SR
[14] = test system: KM12
[15] = test system: Malme-3M
[16] = test system: SF-268
[17] = test system: U-251
[18] = test system: MDA-N
[19] = test system: OVCAR-5
[20] = test system: SK-MEL-2

Row | Compound | GI50 [1] | GI50 [2] | GI50 [3] | GI50 [4] | GI50 [5] | GI50 [6] | GI50 [7] | GI50 [8] | GI50 [9] | GI50 [10] | GI50 [11] | GI50 [12] | GI50 [13] | GI50 [14] | GI50 [15] | GI50 [16] | GI50 [17] | GI50 [18] | GI50 [19] | GI50 [20]
1 | COc1cc(C/N=c2/nc(N(C)C)ss2)cc(OC)c1OC | > 10 µM (inactive) | > 10 µM (inactive) | > 10 µM (inactive) | > 10 µM (inactive) | > 10 µM (inactive) | 1.8 µM (inactive) | > 10 µM (inactive) | > 9.27 µM (inactive) | > 10 µM (inactive) | > 5.78 µM (inactive) | > 10 µM (inactive) | > 10 µM (inactive) | 0.358 µM (active) | > 7.59 µM (inactive) | > 5.15 µM (inactive) | > 10 µM (inactive) | > 10 µM (inactive) | > 10 µM (inactive) | 3.37 µM (inactive) | –
2 | Cc1ccc(O)c(-c2cc(-c3cccc(Cl)c3)c(C#N)c(N)n2)c1 | 14.4 µM (inactive) | 16.1 µM (inactive) | – | 23.3 µM (inactive) | 19.5 µM (inactive) | 36.1 µM (inactive) | 12.5 µM (inactive) | 15.9 µM (inactive) | 22.7 µM (inactive) | 13.5 µM (inactive) | 25.8 µM (inactive) | 18 µM (inactive) | 10.7 µM (inactive) | 19.6 µM (inactive) | 17.5 µM (inactive) | 18.6 µM (inactive) | 15.6 µM (inactive) | 14.5 µM (inactive) | 24 µM (inactive) | 13.2 µM (inactive)
3 | COc1ccc(/C=C2\c3cc(OC)c(OC)cc3CCN2C(=O)c2ccccc2)cc1OC | 18.5 µM (inactive) | 36.7 µM (inactive) | 86.9 µM (inactive) | 46.5 µM (inactive) | 46.7 µM (inactive) | 23.1 µM (inactive) | 20.3 µM (inactive) | – | 35.6 µM (inactive) | 43.9 µM (inactive) | 30.7 µM (inactive) | 35.5 µM (inactive) | 30.8 µM (inactive) | 49.9 µM (inactive) | 22.5 µM (inactive) | 46.3 µM (inactive) | 82.6 µM (inactive) | 25 µM (inactive) | 55 µM (inactive) | 43.3 µM (inactive)
4 | CC1=C(C)C(=O)OC(C(C)(O)C2(O)CCC3(O)C4CC(Cl)C5(O)C(O)C=CC(=O)C5(C)C4CCC32C)C1 (stereo not drawn) | – | 9.1 µM (inactive) | 37.2 µM (inactive) | 48.1 µM (inactive) | 28.2 µM (inactive) | 4.15 µM (inactive) | 10.8 µM (inactive) | 57.4 µM (inactive) | 66.4 µM (inactive) | 8.85 µM (inactive) | 15.9 µM (inactive) | 15.6 µM (inactive) | 8.51 µM (inactive) | 25.6 µM (inactive) | > 100 µM (inactive) | 48.1 µM (inactive) | 37.5 µM (inactive) | 20 µM (inactive) | > 100 µM (inactive) | > 100 µM (inactive)
5 | O=C(NCCc1ccccc1)c1c(O)nc2ccccc2c1O | > 100 µM (inactive) | – | > 100 µM (inactive) | > 100 µM (inactive) | > 100 µM (inactive) | > 100 µM (inactive) | > 100 µM (inactive) | > 100 µM (inactive) | > 100 µM (inactive) | > 100 µM (inactive) | > 100 µM (inactive) | > 100 µM (inactive) | > 100 µM (inactive) | > 100 µM (inactive) | > 100 µM (inactive) | > 100 µM (inactive) | > 100 µM (inactive) | > 100 µM (inactive) | > 100 µM (inactive) | –
6 | COc1ccc(N2C(=O)C(=O)C3(CCCCC3)C2=O)c2ccccc12 | > 10 µM (inactive) | > 10 µM (inactive) | – | > 10 µM (inactive) | > 10 µM (inactive) | > 10 µM (inactive) | > 10 µM (inactive) | > 10 µM (inactive) | > 10 µM (inactive) | > 10 µM (inactive) | > 10 µM (inactive) | 9.77 µM (inactive) | > 10 µM (inactive) | > 10 µM (inactive) | > 10 µM (inactive) | > 10 µM (inactive) | > 10 µM (inactive) | > 10 µM (inactive) | > 10 µM (inactive) | > 10 µM (inactive)
